Experimental data: patent US10301291B2, “Imidazole derivative having JNK inhibitory activity and use thereof” (SAMJIN PHARMACEUTICAL CO., LTD., priority 2016, dated 2019)

How the values were obtained:
Format in all cases: biochemical
[1] = biological target: T1, JNK3 (Homo sapiens (Human), UniProt P53779); experiment: Measurement of JNK3 enzyme activity (33P-ATP filter-binding); settings: human JNK3, ATP 10 μM, ATF2 3 μM
Method: The changes in JNK3 enzyme activity resulting from being treated with the inventive imidazole derivative (Formula 1) shown in a following Table 1 were identified through IC50.
First of all, after a substrate was inserted into a prepared base reaction buffer solution (20 mM Hepes ([…]), 10 mM MgCl2, 1 mM EGTA, 0.02% Brij35, 0.02 mg/ml BSA, 0.1 mM Na3VO4, 2 mM DTT, 1% DMSO), a human JNK3 enzyme was added into a prepared substrate solution and then mixed together. As the substrate, ATP (10 μM) and ATF2 (3 μM) were used, among which the ATP was also used as a common substrate. Then, compounds of Examples 1-18 and 25-36, which were dissolved in 100% DMSO, were inserted into an enzyme reaction solution, and then cultured at room temperature for 20 minutes. Then, ^33P-ATP was inserted into the above reaction mixture solution to initiate a reaction, then cultured at room temperature for 2 hours, and then an enzyme activity was detected by means of a filter-binding method.
Particularly, after each 25 μl of the resulting solution was slowly spotted on P81 paper, it was inserted into a scintillation vial, and washed with 0.75% phosphoric acid four times for 10 minutes each, and with acetone once for 5 minutes. 5 ml of scintillation cocktail was inserted into the above scintillation vial and a resulting signal was read by means of a scintillation counter.
IC50 values of compounds of Examples 1-18 and 25-36 with regard to JNK3 enzyme activity were shown in a following Table 2.

[2] = biological target: c-Kit (Homo sapiens (Human), UniProt P10721); experiment: Kinase profiling service (Reaction Biology Corp.); settings: compound 10 μM
c-Kit, sequence (P10721 26-976): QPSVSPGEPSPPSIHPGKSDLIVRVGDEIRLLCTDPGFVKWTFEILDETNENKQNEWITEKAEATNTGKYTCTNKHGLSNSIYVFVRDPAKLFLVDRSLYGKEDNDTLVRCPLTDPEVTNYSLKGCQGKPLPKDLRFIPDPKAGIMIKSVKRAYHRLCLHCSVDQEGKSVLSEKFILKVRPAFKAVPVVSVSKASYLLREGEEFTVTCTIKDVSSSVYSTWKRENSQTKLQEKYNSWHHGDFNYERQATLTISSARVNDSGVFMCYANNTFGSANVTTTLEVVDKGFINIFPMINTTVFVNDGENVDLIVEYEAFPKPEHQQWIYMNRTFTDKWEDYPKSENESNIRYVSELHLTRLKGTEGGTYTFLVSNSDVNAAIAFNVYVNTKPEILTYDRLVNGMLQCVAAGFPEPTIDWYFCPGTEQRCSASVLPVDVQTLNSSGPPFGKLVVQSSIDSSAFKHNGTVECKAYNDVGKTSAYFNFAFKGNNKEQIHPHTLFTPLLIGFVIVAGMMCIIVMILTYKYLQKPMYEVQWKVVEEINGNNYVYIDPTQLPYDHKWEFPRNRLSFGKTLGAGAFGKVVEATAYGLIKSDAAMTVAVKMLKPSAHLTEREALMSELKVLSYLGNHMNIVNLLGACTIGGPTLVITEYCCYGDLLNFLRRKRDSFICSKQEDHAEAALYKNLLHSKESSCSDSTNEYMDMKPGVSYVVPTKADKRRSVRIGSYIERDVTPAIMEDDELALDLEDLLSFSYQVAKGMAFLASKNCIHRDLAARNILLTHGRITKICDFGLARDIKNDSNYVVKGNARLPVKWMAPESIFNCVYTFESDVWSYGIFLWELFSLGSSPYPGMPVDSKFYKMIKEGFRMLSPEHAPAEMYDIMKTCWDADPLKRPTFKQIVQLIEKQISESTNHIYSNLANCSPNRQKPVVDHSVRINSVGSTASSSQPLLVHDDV
Method: (§1) An inhibitory activity of the compound (10 μM) of Example 34 against various protein kinases was measured by means of a kinase profiling service (ICso profiler express) of Reaction Biology Corp., wherein ICso, a concentration at which JNK enzyme activity was inhibited 50%, was also measured by sequentially reducing a concentration of the compound.

[3] = biological target: ALK (Homo sapiens (Human), UniProt Q9UM73); experiment: Kinase profiling service (Reaction Biology Corp.); settings: compound 10 μM
Method: as §1

[4] = biological target: JAK3 (Homo sapiens (Human), UniProt P52333); experiment: Kinase profiling service (Reaction Biology Corp.); settings: compound 10 μM
JAK3, sequence (P52333 whole entry): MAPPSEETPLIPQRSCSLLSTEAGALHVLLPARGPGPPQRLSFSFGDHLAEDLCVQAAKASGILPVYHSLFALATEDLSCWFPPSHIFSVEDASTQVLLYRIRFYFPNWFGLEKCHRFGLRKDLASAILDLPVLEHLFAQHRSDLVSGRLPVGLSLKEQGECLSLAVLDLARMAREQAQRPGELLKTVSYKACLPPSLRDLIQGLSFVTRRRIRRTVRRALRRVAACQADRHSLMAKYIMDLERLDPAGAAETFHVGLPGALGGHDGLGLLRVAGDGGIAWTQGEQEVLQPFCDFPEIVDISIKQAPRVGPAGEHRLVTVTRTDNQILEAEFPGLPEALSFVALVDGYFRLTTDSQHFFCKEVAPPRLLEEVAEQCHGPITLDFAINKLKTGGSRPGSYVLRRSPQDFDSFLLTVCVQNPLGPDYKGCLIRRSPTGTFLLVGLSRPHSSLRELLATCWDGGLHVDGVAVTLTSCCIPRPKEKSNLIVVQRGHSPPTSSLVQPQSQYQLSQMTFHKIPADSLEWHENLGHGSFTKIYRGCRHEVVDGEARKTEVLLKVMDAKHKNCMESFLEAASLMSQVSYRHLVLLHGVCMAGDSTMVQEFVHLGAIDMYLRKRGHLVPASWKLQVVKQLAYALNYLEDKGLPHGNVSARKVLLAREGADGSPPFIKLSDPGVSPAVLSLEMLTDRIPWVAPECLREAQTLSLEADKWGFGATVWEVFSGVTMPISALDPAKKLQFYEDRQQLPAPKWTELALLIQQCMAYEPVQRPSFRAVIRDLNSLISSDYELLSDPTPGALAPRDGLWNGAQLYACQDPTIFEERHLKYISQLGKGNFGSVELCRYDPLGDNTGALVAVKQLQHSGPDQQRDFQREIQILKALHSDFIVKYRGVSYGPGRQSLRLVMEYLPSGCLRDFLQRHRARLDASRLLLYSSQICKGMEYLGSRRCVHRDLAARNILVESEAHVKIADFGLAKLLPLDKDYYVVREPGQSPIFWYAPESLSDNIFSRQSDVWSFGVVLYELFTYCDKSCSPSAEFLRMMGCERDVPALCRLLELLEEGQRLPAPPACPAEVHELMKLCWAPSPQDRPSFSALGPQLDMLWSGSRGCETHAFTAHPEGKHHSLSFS
Method: as §1

[5] = biological target: T1, JNK3; experiment: Kinase profiling service (Reaction Biology Corp.); settings: compound 10 μM
Method: as §1

[6] = biological target: c-MET (Homo sapiens (Human), UniProt P08581); experiment: Kinase profiling service (Reaction Biology Corp.); settings: compound 10 μM
Method: as §1

[7] = biological target: KDR/VEGFR2 (Homo sapiens (Human), UniProt P35968); experiment: Kinase profiling service (Reaction Biology Corp.); settings: compound 10 μM
Method: as §1

[8] = biological target: PKA (Homo sapiens (Human), UniProt P17612); experiment: Kinase profiling service (Reaction Biology Corp.); settings: compound 10 μM
Method: as §1

[9] = biological target: MLK1/MAP3K9 (Homo sapiens (Human), UniProt P80192); experiment: Kinase profiling service (Reaction Biology Corp.); settings: compound 10 μM
Method: as §1

[10] = biological target: LCK (Homo sapiens (Human), UniProt P06239); experiment: Kinase profiling service (Reaction Biology Corp.); settings: compound 10 μM
Method: as §1

[11] = biological target: ROS/ROS1 (Homo sapiens (Human), UniProt P08922); experiment: Kinase profiling service (Reaction Biology Corp.); settings: compound 10 μM
Method: as §1

[12] = biological target: FGFR3 (Homo sapiens (Human), UniProt P22607); experiment: Kinase profiling service (Reaction Biology Corp.); settings: compound 10 μM
Method: as §1

[13] = biological target: ERK2/MAPK1 (Homo sapiens (Human), UniProt P28482); experiment: Kinase profiling service (Reaction Biology Corp.); settings: compound 10 μM
Method: as §1

[14] = biological target: SYK (Homo sapiens (Human), UniProt P43405); experiment: Kinase profiling service (Reaction Biology Corp.); settings: compound 10 μM
Method: as §1

[15] = biological target: IGF1R (Homo sapiens (Human), UniProt P08069); experiment: Kinase profiling service (Reaction Biology Corp.); settings: compound 10 μM
Method: as §1

[16] = biological target: CDK2/cyclin E (Homo sapiens (Human), UniProt P24941); experiment: Kinase profiling service (Reaction Biology Corp.); settings: compound 10 μM
Method: as §1

[17] = biological target: ABL1 (Homo sapiens (Human), UniProt P00519); experiment: Kinase profiling service (Reaction Biology Corp.); settings: compound 10 μM
Method: as §1

[18] = biological target: CDK1/cyclin B (Homo sapiens (Human), UniProt P06493); experiment: Kinase profiling service (Reaction Biology Corp.); settings: compound 10 μM
Method: as §1

[19] = biological target: LYN (Homo sapiens (Human), UniProt P07948); experiment: Kinase profiling service (Reaction Biology Corp.); settings: compound 10 μM
LYN, sequence (P07948 whole entry): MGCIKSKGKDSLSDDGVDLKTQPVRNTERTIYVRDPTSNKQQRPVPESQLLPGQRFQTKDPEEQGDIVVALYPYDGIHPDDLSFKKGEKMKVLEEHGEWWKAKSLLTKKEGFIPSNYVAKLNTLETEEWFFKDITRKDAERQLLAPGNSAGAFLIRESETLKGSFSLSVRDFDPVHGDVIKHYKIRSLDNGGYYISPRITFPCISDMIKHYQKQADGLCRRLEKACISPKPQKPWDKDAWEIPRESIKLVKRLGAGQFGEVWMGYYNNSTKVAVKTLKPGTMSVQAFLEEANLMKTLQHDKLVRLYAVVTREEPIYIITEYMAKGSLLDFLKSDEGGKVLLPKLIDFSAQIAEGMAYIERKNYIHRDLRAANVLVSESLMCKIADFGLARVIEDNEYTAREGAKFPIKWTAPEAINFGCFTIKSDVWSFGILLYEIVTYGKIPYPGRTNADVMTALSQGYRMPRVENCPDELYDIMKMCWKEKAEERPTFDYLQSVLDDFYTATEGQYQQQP
Method: as §1

[20] = biological target: FAK/PTK2 (Homo sapiens (Human), UniProt Q05397); experiment: Kinase profiling service (Reaction Biology Corp.); settings: compound 10 μM
FAK/PTK2, sequence (Q05397 whole entry): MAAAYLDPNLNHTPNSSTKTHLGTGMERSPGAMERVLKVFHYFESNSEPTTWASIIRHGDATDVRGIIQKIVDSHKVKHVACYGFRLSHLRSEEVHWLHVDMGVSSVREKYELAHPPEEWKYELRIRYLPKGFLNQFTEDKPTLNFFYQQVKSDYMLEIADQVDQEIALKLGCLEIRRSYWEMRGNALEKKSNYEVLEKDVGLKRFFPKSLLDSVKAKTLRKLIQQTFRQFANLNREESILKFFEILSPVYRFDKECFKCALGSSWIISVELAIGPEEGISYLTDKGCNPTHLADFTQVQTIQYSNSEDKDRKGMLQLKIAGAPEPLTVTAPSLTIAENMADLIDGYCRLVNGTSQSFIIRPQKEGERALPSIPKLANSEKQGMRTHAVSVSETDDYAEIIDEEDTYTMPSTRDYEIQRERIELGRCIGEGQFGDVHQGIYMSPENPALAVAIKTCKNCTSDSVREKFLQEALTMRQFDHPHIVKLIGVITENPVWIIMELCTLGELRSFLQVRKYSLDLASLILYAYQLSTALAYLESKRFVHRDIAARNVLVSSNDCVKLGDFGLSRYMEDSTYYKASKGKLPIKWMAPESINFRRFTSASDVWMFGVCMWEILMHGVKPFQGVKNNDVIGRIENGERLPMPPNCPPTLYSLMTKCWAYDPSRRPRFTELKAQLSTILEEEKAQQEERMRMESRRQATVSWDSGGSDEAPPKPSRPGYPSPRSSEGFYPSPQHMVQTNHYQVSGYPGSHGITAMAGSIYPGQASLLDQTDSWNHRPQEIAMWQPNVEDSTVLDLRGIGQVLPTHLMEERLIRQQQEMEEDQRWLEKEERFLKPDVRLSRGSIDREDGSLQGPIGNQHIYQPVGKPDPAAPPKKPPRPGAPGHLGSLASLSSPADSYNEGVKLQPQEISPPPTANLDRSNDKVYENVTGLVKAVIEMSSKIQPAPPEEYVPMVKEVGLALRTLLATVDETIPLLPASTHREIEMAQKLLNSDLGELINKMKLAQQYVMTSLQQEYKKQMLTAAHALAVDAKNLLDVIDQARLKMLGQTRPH
Method: as §1

[21] = biological target: LRRK2 (Homo sapiens (Human), UniProt Q5S007); experiment: Kinase profiling service (Reaction Biology Corp.); settings: compound 10 μM
Method: as §1

[22] = biological target: FLT3 (Homo sapiens (Human), UniProt P36888); experiment: Kinase profiling service (Reaction Biology Corp.); settings: compound 10 μM
FLT3, sequence (P36888 27-993): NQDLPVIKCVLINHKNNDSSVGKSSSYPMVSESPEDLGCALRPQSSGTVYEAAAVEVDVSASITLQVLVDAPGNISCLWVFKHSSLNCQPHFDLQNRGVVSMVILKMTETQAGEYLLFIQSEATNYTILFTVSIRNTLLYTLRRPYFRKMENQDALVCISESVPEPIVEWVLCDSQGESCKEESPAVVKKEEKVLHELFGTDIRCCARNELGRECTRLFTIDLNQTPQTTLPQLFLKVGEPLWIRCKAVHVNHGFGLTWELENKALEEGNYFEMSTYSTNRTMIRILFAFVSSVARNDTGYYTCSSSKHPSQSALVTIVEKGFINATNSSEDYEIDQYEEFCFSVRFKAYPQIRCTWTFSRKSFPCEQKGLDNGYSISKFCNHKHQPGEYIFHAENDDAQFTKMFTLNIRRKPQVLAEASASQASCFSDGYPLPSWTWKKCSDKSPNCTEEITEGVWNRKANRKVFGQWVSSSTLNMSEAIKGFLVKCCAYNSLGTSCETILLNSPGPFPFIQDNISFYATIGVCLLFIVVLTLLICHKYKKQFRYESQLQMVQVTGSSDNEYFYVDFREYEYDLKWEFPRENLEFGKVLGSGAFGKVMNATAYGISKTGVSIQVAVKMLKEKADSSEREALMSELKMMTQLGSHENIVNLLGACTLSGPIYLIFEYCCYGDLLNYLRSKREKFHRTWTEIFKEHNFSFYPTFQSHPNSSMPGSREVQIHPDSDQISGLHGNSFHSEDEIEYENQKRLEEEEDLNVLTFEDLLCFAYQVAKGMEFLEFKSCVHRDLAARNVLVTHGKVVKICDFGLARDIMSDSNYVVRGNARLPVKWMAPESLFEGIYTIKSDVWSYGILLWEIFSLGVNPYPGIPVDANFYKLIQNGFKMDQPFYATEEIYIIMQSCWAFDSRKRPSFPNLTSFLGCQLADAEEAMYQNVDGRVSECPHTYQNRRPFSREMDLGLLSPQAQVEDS
Method: as §1

[23] = biological target: JNK2 (Homo sapiens (Human), UniProt P45984); experiment: Kinase profiling service (Reaction Biology Corp.); settings: compound 10 μM
Method: as §1

[24] = biological target: ERK1 (Homo sapiens (Human), UniProt P27361); experiment: Kinase profiling service (Reaction Biology Corp.); settings: compound 10 μM
Method: as §1

[25] = biological target: Aurora A (Homo sapiens (Human), UniProt O14965); experiment: Kinase profiling service (Reaction Biology Corp.); settings: compound 10 μM
Method: as §1

[26] = biological target: AKT1 (Homo sapiens (Human), UniProt P31749); experiment: Kinase profiling service (Reaction Biology Corp.); settings: compound 10 μM
Method: as §1

[27] = Data 1 and Data 2, read-out: % Enzyme Activity (relative to DMSO controls)

T1 sequence (P53779 whole entry): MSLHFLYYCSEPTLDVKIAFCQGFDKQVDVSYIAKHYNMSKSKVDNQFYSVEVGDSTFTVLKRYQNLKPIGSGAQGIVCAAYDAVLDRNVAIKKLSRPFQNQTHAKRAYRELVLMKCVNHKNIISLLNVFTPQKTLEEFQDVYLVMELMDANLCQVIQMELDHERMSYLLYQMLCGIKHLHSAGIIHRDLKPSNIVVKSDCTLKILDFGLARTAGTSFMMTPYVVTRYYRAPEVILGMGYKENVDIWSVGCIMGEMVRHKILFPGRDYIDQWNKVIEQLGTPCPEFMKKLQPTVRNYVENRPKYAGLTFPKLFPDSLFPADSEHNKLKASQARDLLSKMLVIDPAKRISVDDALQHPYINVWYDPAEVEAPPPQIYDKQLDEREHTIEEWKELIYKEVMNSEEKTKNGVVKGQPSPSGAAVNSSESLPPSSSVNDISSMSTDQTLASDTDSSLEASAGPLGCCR

- IC50 [1]: < 0.03 µM
- % Enzyme Activity (relative to DMSO controls) ([2]; Data 1 and Data 2): 92.65%
- remaining activity at 10 µM [2, 27]: 93.4%
- % Enzyme Activity (relative to DMSO controls) ([3]; Data 1 and Data 2): 97.85%
- remaining activity at 10 µM [3, 27]: 98%
- % Enzyme Activity (relative to DMSO controls) ([4]; Data 1 and Data 2): 99.82%
- remaining activity at 10 µM [4, 27]: 101%
- % Enzyme Activity (relative to DMSO controls) ([5]; Data 1 and Data 2): 4.81%
- remaining activity at 10 µM [5, 27]: 5.04%
- % Enzyme Activity (relative to DMSO controls) ([6]; Data 1 and Data 2): 90.72%
- remaining activity at 10 µM [6, 27]: 105%
- % Enzyme Activity (relative to DMSO controls) ([7]; Data 1 and Data 2): 73.81%
- remaining activity at 10 µM [7, 27]: 74.1%
- % Enzyme Activity (relative to DMSO controls) ([8]; Data 1 and Data 2): 96.45%
- remaining activity at 10 µM [8, 27]: 97.3%
- % Enzyme Activity (relative to DMSO controls) ([9]; Data 1 and Data 2): 93.90%
- remaining activity at 10 µM [9, 27]: 95.7%
- % Enzyme Activity (relative to DMSO controls) ([10]; Data 1 and Data 2): 95.50%
- remaining activity at 10 µM [10, 27]: 95.8%
- % Enzyme Activity (relative to DMSO controls) ([11]; Data 1 and Data 2): 95.23%
- remaining activity at 10 µM [11, 27]: 97.8%
- % Enzyme Activity (relative to DMSO controls) ([12]; Data 1 and Data 2): 91.29%
- remaining activity at 10 µM [12, 27]: 91.4%
- % Enzyme Activity (relative to DMSO controls) ([13]; Data 1 and Data 2): 97.70%
- remaining activity at 10 µM [13, 27]: 98%
- % Enzyme Activity (relative to DMSO controls) ([14]; Data 1 and Data 2): 97.43%
- remaining activity at 10 µM [14, 27]: 98.1%
- % Enzyme Activity (relative to DMSO controls) ([15]; Data 1 and Data 2): 92.45%
- remaining activity at 10 µM [15, 27]: 93.1%
- % Enzyme Activity (relative to DMSO controls) ([16]; Data 1 and Data 2): 95.83%
- remaining activity at 10 µM [16, 27]: 97.5%
- % Enzyme Activity (relative to DMSO controls) ([17]; Data 1 and Data 2): 94.12%
- remaining activity at 10 µM [17, 27]: 95.3%
- % Enzyme Activity (relative to DMSO controls) ([18]; Data 1 and Data 2): 90.33%
- remaining activity at 10 µM [18, 27]: 90.7%
- % Enzyme Activity (relative to DMSO controls) ([19]; Data 1 and Data 2): 85.66%
- remaining activity at 10 µM [19, 27]: 86.6%
- % Enzyme Activity (relative to DMSO controls) ([20]; Data 1 and Data 2): 99.94%
- remaining activity at 10 µM [20, 27]: 101%
- % Enzyme Activity (relative to DMSO controls) ([21]; Data 1 and Data 2): 95.95%
- remaining activity at 10 µM [21, 27]: 96.3%
- % Enzyme Activity (relative to DMSO controls) ([22]; Data 1 and Data 2): 96.52%
- remaining activity at 10 µM [22, 27]: 98.7%
- % Enzyme Activity (relative to DMSO controls) ([23]; Data 1 and Data 2): 1.40%
- remaining activity at 10 µM [23, 27]: 1.41%
- % Enzyme Activity (relative to DMSO controls) ([24]; Data 1 and Data 2): 97.98%
- remaining activity at 10 µM [24, 27]: 98.5%
- % Enzyme Activity (relative to DMSO controls) ([25]; Data 1 and Data 2): 101.98%
- remaining activity at 10 µM [25, 27]: 102%
- % Enzyme Activity (relative to DMSO controls) ([26]; Data 1 and Data 2): 99.04%
- remaining activity at 10 µM [26, 27]: 103%
Compound: N#CCc1cnc(-c2ccc3ccccc3c2)n1-c1ccnc(NC2CCCN(C(=O)C3CC3)C2)n1 (stereo not drawn) [Example 34, 2-(1-(2-(1-(cyclopropanecarbonyl)piperidine-3-ylamino)pyrimidine-4-yl)-2-(naphthalene-2-yl)-1H-imidazole-5-yl)acetonitrile]
